Source: patent US11053204B2, “Pyrimidinyloxy benzene derivatives as herbicides” (FMC Corporation, priority 2015, dated 2021)

Tests used:
Format in all cases: in vivo
[1] = tested on: soybean (Glycine max); experiment: Test C preemergence, plant response rating; details: scale 0 to 100; for Soybean plant response rating: preemergence
Summary of the method: (§1)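 Both timings shared one formulation, a non-phytotoxic solvent mixture with surfactant, and a greenhouse period of 13 to 15 d. Preemergence used seeded loam/sand or silt loam soil, postemergence used 2 to 18 cm plants; visual ratings ran from 0 (no effect) to 100 (complete control).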

[2] = tested on: blackgrass (Alopecurus myosuroides); experiment: Test C preemergence, plant response rating; details: scale 0 to 100; for Blackgrass plant response rating: preemergence
Summary of the method: as §1

[3] = tested on: morningglory (Ipomoea coccinea); experiment: Test C preemergence, plant response rating; details: scale 0 to 100; for Morningglory plant response rating: preemergence
Summary of the method: as §1

[4] = tested on: crabgrass, large (large crabgrass, Digitaria sanguinalis); experiment: Test C preemergence, plant response rating; details: scale 0 to 100; for Crabgrass, Large plant response rating: preemergence
Summary of the method: as §1

[5] = tested on: nutsedge, yellow (yellow nutsedge, Cyperus esculentus); experiment: Test C preemergence, plant response rating; details: scale 0 to 100; for Nutsedge, Yellow plant response rating: preemergence
Summary of the method: as §1

[6] = tested on: ryegrass, Italian (Italian ryegrass, Lolium multiflorum); experiment: Test C preemergence, plant response rating; details: scale 0 to 100; for Ryegrass, Italian plant response rating: preemergence
Summary of the method: as §1

[7] = tested on: velvetleaf (Abutilon theophrasti); experiment: Test C preemergence, plant response rating; details: scale 0 to 100; for Velvetleaf plant response rating: preemergence
Summary of the method: as §1

[8] = tested on: waterhemp (common waterhemp, Amaranthus rudis); experiment: Test C preemergence, plant response rating; details: scale 0 to 100; for Waterhemp plant response rating: preemergence
Summary of the method: as §1

[9] = tested on: foxtail, giant (giant foxtail, Setaria faberii); experiment: Test C preemergence, plant response rating; details: scale 0 to 100; for Foxtail, Giant plant response rating: preemergence
Summary of the method: as §1

[10] = tested on: corn (Zea mays); experiment: Test C preemergence, plant response rating; details: scale 0 to 100; for Corn plant response rating: preemergence
Summary of the method: as §1

[11] = tested on: ragweed (common ragweed, Ambrosia elatior); experiment: Test C preemergence, plant response rating; details: scale 0 to 100; for Ragweed plant response rating: preemergence
Summary of the method: as §1

[12] = tested on: oilseed rape (Brassica napus); experiment: Test C preemergence, plant response rating; details: scale 0 to 100; for Oilseed Rape plant response rating: preemergence
Summary of the method: as §1

[13] = tested on: wheat (winter wheat, Triticum aestivum); experiment: Test C preemergence, plant response rating; details: scale 0 to 100; for Wheat plant response rating: preemergence
Summary of the method: as §1

[14] = tested on: lambsquarters (Chenopodium album); experiment: Test C preemergence, plant response rating; details: scale 0 to 100; for Lambsquarters plant response rating: preemergence
Summary of the method: as §1

[15] = tested on: pigweed (Amaranthus retroflexus); experiment: Test C preemergence, plant response rating; details: scale 0 to 100; for Plant response rating, Pigweed: Preemergence; for Pigweed plant response rating: preemergence
[16] = tested on: sedge, umbrella (small-flower umbrella sedge, Cyperus difformis); experiment: Test B flooded paddy test, plant response rating; details: Cyperus difformis, 312 h; 250 g ai/ha; Flood; scale of 0 to 100 where 0 is no effect and 100 is complete control; 13 to 15 days
Summary of the method: (§2)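 In-water treatment: compound dosed into 3 cm flood over soil, water level unchanged throughout. Controls run alongside; visual assessment at day 13–15.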

[17] = tested on: ducksalad (Heteranthera limosa); experiment: Test B flooded paddy test, plant response rating; details: Heteranthera limosa, 312 h; 250 g ai/ha; Flood; scale of 0 to 100 where 0 is no effect and 100 is complete control; 13 to 15 days
Summary of the method: as §2

[18] = tested on: rice (Oryza sativa); experiment: Test B flooded paddy test, plant response rating; details: Oryza sativa, 312 h; 250 g ai/ha; Flood; scale of 0 to 100 where 0 is no effect and 100 is complete control; 13 to 15 days
Summary of the method: as §2

Structure (SMILES): CCCOC(=O)c1c(Br)cccc1Oc1ncc(Cl)cn1 [Compound 13, propyl 2-bromo-6-[(5-chloro-2-pyrimidinyl)oxy]benzoate]
- plant injury at 16 g/ha ([1]; Glycine max, pre-emergence, Preemergence, 16 g ai/ha): 5%
- plant injury at 31 g/ha ([1]; Glycine max, pre-emergence, Preemergence, 31 g ai/ha): 5%
- Soybean plant response rating ([1]; 4 g ai/ha): 0
- Soybean plant response rating ([1]; 8 g ai/ha): 0
- pest or weed control at 16 g/ha ([2]; Alopecurus myosuroides, pre-emergence, Preemergence, 16 g ai/ha): 0%
- pest or weed control at 31 g/ha ([2]; Alopecurus myosuroides, pre-emergence, Preemergence, 31 g ai/ha): 0%
- Blackgrass plant response rating ([2]; 4 g ai/ha): 0
- Blackgrass plant response rating ([2]; 8 g ai/ha): 0
- pest or weed control at 16 g/ha ([3]; Ipomoea, pre-emergence, Preemergence, 16 g ai/ha): 5%
- pest or weed control at 31 g/ha ([3]; Ipomoea, pre-emergence, Preemergence, 31 g ai/ha): 5%
- Morningglory plant response rating ([3]; 4 g ai/ha): 0
- Morningglory plant response rating ([3]; 8 g ai/ha): 0
- pest or weed control at 16 g/ha ([4]; Digitaria sanguinalis, pre-emergence, Preemergence, 16 g ai/ha): 60%
- pest or weed control at 31 g/ha ([4]; Digitaria sanguinalis, pre-emergence, Preemergence, 31 g ai/ha): 85%
- Crabgrass, Large plant response rating ([4]; 4 g ai/ha): 25
- Crabgrass, Large plant response rating ([4]; 8 g ai/ha): 30
- pest or weed control at 16 g/ha ([5]; Cyperus, pre-emergence, Preemergence, 16 g ai/ha): 0%
- pest or weed control at 31 g/ha ([5]; Cyperus, pre-emergence, Preemergence, 31 g ai/ha): 5%
- Nutsedge, Yellow plant response rating ([5]; 4 g ai/ha): 0
- Nutsedge, Yellow plant response rating ([5]; 8 g ai/ha): 0
- pest or weed control at 16 g/ha ([6]; Lolium multiflorum, pre-emergence, Preemergence, 16 g ai/ha): 0%
- pest or weed control at 31 g/ha ([6]; Lolium multiflorum, pre-emergence, Preemergence, 31 g ai/ha): 0%
- Ryegrass, Italian plant response rating ([6]; 4 g ai/ha): 0
- Ryegrass, Italian plant response rating ([6]; 8 g ai/ha): 0
- pest or weed control at 16 g/ha ([7]; Abutilon theophrasti, pre-emergence, Preemergence, 16 g ai/ha): 20%
- pest or weed control at 31 g/ha ([7]; Abutilon theophrasti, pre-emergence, Preemergence, 31 g ai/ha): 70%
- Velvetleaf plant response rating ([7]; 4 g ai/ha): 5
- Velvetleaf plant response rating ([7]; 8 g ai/ha): 10
- pest or weed control at 16 g/ha ([8]; Amaranthus tuberculatus, pre-emergence, Preemergence, 16 g ai/ha): 80%
- pest or weed control at 31 g/ha ([8]; Amaranthus tuberculatus, pre-emergence, Preemergence, 31 g ai/ha): 100%
- Waterhemp plant response rating ([8]; 4 g ai/ha): 5
- Waterhemp plant response rating ([8]; 8 g ai/ha): 10
- pest or weed control at 16 g/ha ([9]; Setaria faberi, pre-emergence, Preemergence, 16 g ai/ha): 0%
- pest or weed control at 31 g/ha ([9]; Setaria faberi, pre-emergence, Preemergence, 31 g ai/ha): 95%
- Foxtail, Giant plant response rating ([9]; 4 g ai/ha): 0
- Foxtail, Giant plant response rating ([9]; 8 g ai/ha): 0
- Corn plant response rating (crop injury, 0 = no effect, 100 = complete kill) at 16 g/ha ([10]; Zea mays, pre-emergence, Preemergence, 16 g ai/ha): 5%
- Corn plant response rating (crop injury, 0 = no effect, 100 = complete kill) at 31 g/ha ([10]; Zea mays, pre-emergence, Preemergence, 31 g ai/ha): 10%
- Corn plant response rating ([10]; 4 g ai/ha): 0
- Corn plant response rating ([10]; 8 g ai/ha): 0
- pest or weed control at 16 g/ha ([11]; Ambrosia artemisiifolia, pre-emergence, Preemergence, 16 g ai/ha): 0%
- pest or weed control at 31 g/ha ([11]; Ambrosia artemisiifolia, pre-emergence, Preemergence, 31 g ai/ha): 10%
- Ragweed plant response rating ([11]; 4 g ai/ha): 0
- Ragweed plant response rating ([11]; 8 g ai/ha): 0
- plant injury at 16 g/ha ([12]; Brassica napus, pre-emergence, Preemergence, 16 g ai/ha): 0%
- plant injury at 31 g/ha ([12]; Brassica napus, pre-emergence, Preemergence, 31 g ai/ha): 50%
- Oilseed Rape plant response rating ([12]; 4 g ai/ha): 0
- Oilseed Rape plant response rating ([12]; 8 g ai/ha): 0
- plant injury at 16 g/ha ([13]; Triticum aestivum, pre-emergence, Preemergence, 16 g ai/ha): 0%
- plant injury at 31 g/ha ([13]; Triticum aestivum, pre-emergence, Preemergence, 31 g ai/ha): 5%
- Wheat plant response rating ([13]; 4 g ai/ha): 0
- Wheat plant response rating ([13]; 8 g ai/ha): 0
- pest or weed control at 16 g/ha ([14]; Chenopodium album, pre-emergence, Preemergence, 16 g ai/ha): 50%
- pest or weed control at 31 g/ha ([14]; Chenopodium album, pre-emergence, Preemergence, 31 g ai/ha): 15%
- Lambsquarters plant response rating ([14]; 4 g ai/ha): 0
- Lambsquarters plant response rating ([14]; 8 g ai/ha): 5
- Plant response rating, Pigweed ([15]; 16 g ai/ha): 5
- Plant response rating, Pigweed ([15]; 31 g ai/ha): 60
- Pigweed plant response rating ([15]; 4 g ai/ha): 5
- Pigweed plant response rating ([15]; 8 g ai/ha): 10
- pest or weed control at 250 g/ha [16]: 75%
- pest or weed control at 250 g/ha [17]: 70%
- plant injury at 250 g/ha [18]: 30%
